Measured values from US12257306B2, “Antiviral prodrugs and nanoformulations thereof” (Board of Regents of the University of Nebraska, priority 2018, dated 2025).

Experiments:
[1] = test system: HIV-1; details: plasma, cited from earlier work; for 4×PA-IC90: four times protein-adjusted 90% inhibitory concentration
[2] = test system: HIV-1ADA; experiment: Antiretroviral efficacy of prodrugs by HIV reverse transcriptase (RT) activity in MDM; type: cell-based; details: MDM treated 8 hours, 0.01-1000 nM, challenged with HIV-1ADA MOI 0.01; FIG. 2A
Method: The DTG prodrugs M3DTG and M4DTG were studied. First, antiretroviral efficacy was determined by measurement of HIV reverse transcriptase (RT) activity. To assess antiretroviral efficacy, monocyte-derived macrophage (MDM) were treated with either M3DTG or M4DTG for 8 hours over a range of concentrations (0.01-1000 nM). Drug was dosed in 0.1% (v/v) DMSO in media. After treatment, cells were washed with PBS to remove excess of free drug and nanoparticles and the cells were cultured with fresh media, with half-media exchanges every other day. The MDM were challenged with HIV-1ADA at a MOI of 0.01 infectious viral particles/cell for up to 30 days. Progeny virion production was measured by RT activity in culture medium (Kalter, et al. (1992) J. Clin. Microbiol., 30(4):993-995).

| antiretroviral activity (HIV-1 RT activity) [2] | Compound | 4×PA-IC90 [1] [µg/mL] | PA-IC90 ([1]; protein-adjusted 90% inhibitory concentration) [µg/mL] |
| --- | --- | --- | --- |
|  | C[C@H]1CO[C@@H]2Cn3cc(C(=O)NCc4ccc(F)cc4F)c(=O)c(O)c3C(=O)N12 [CAB, cabotegravir] | 0.66 |  |
|  | C[C@@H]1CCO[C@H]2Cn3cc(C(=O)NCc4ccc(F)cc4F)c(=O)c(O)c3C(=O)N12 [DTG, dolutegravir] | 0.256 | 0.064 |
| significant antiretroviral activity | C[C@@H]1CCO[C@H]2Cn3cc(C(=O)NCc4ccc(F)cc4F)c(=O)c(OC(=O)CCCCCCCC(=O)Oc4c5n(cc(C(=O)NCc6ccc(F)cc6F)c4=O)C[C@@H]4OCC[C@@H](C)N4C5=O)c3C(=O)N12 [M3DTG] |  |  |
